Results as given in publication PMC12518634, “The noncanonical function of liver-type phosphofructokinase potentiates the efficacy of HDAC inhibitors in cancer” (Signal Transduction and Targeted Therapy, 2025).
Where two headings read alike, the source gives them in different places. Where no end group is shown, it is not given here.

Assays:
TFK1 cells = assay: Cell viability assay (CellTiter-Glo, 72 h), GI50; type: cell-based, human; conditions: TFK1 sgPFKL-1 and sgPFKL-2 versus sgNC, Supplementary Fig. 2d
Method: Cell viability was assessed using the CellTiter-Glo luminescent cell viability assay (Vazyme, DD1101) following the manufacturer’s instructions. Briefly, 5000 cells per well were seeded into a 96-well white bottom permeable plate. Different concentrations of drugs were added to each well. After 72 h of treatment, a mixture of CellTier reagent and serum-free culture medium was prepared at a 1:1 ratio, and 100 μL of the mixture was added to each well. After incubation at 37 °C for 15 min, the luminescence was measured using a microplate reader (Synergy H1, Biotek). All the experiments were conducted in triplicate. Cell viability (relative luminescence) was defined as the luminescence of the drug treatment relative to that of the vehicle control.

1405R3 = assay: High-throughput drug screen, CellTiter-Glo viability, 72 h; type: cell-based, human; parameters: AUC: scale not given here; conditions: for EC50: fitted dose-response curve, Min.Conc.tested 1, Max.Conc.tested 10000, read-out: EC50
How it was run: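 Responses are drug sensitivity scores (efficacy cutoff ≥10), fitted from CellTiter-Glo luminescence. Each drug was given at five concentrations (10 to 0.001 μM, tenfold steps) in duplicate for 72 h. Cells were plated at 3000/well 24 h before dosing.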

783C-6 = assay: as above; type: cell-based, human; parameters: AUC: scale not given here; conditions: for EC50: read-out: EC50
How it was run: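 Cholangiocarcinoma cells were seeded at 3000/well in 384-well plates and dosed after 24 h. Drugs were tested at 10, 1, 0.1, 0.01 and 0.001 μM in duplicate for 72 h, with viability read by CellTiter-Glo luminescence.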

HuCCT1 cells [1] = assay: Confocal imaging of peptide infiltration into cells; type: in vitro ADME, human; conditions: confocal images, Supplementary Fig. 13b
Description: (§1) Supplementary Fig. 13. […] Scale bars, 100 μm. i Body weight of each group of HuCCT1 xenografts at the end of treatment is plotted (n = 6 mice per group, two-way ANOVA). j The tumor weight of each group of HuCCT1 xenografts at the end of treatment is plotted (n = 6 mice per group, Student’s t test).

HuCCT1 cells [2] = assay: CCK-8 cytotoxicity of the peptides; type: cell-based, human; conditions: CCK-8 assay, n=3 biological replicates, Supplementary Fig. 13c
Method: The cell proliferation rates were determined with a CCK-8 Cell Counting Kit (Vazyme, A311) in strict accordance with the provided protocol. The colony formation capacity was assessed by plating the cells in 6-well plates (5000 cells/well), followed by drug treatment over a 7-day period. Finally, the resulting colonies were subjected to crystal violet staining for subsequent quantification.
as §1

[3] = 1405R3 DSRT analysis, area under the dose-response curve
[4] = 1405R3 DSRT analysis, drug sensitivity score
[5] = 1405R3 DSRT analysis, lower asymptote of fitted dose-response curve
[6] = 783C-6 cells, DSS of DSRT analysis
[7] = 783C-6 cells, area under the dose-response curve
[8] = 783C-6 cells, minimum of dose-response curve
[9] = 783C-6 DSRT analysis, DSS calculated from the dose-response curve
[10] = 783C-6 DSRT analysis, MIN of the fitted dose-response curve
[11] = 783C-6 DSRT analysis, area under the dose-response curve
[12] = 1405R3 DSRT analysis, slope of fitted dose-response curve
[13] = 783C-6 cells, slope of fitted dose-response curve
[14] = 783C-6 DSRT analysis, slope of the fitted dose-response curve
[15] = Homo sapiens, 1405R3 DSRT analysis, CellTiter-Glo viability, 72 h, GI50

Molecule	AUC (1405R3; [3])	DSS (1405R3; [4])	MIN (1405R3; [5])	DSS (783C-6; [6])	AUC (783C-6; [7])	MIN (783C-6; [8])	DSS (1405R3; 1405R3 DSRT analysis, DSS)	DSS (783C-6; [9])	MIN (783C-6; [10])	AUC (783C-6; [11])	SLOPE (1405R3; [12])	also measured
C[C@@H]1NC(=O)[C@H]2CCCN2C(=O)[C@H](CCCCCC(=O)[C@@H]2CO2)NC(=O)[C@@H](C)NC1=O [HC-Toxin]	–	–	–	–	–	–	–	–	–	–	–	effect of PFKL knockout on drug efficacy (cell viability) (TFK1 cells): significantly inhibited drug efficacy
CCC(=O)CCCCC[C@@H]1NC(=O)[C@H]2CCCCN2C(=O)[C@H]([C@@H](C)CC)NC(=O)[C@H](Cc2cn(OC)c3ccccc23)NC1=O [apicidin]	–	–	–	–	–	–	–	–	–	–	–	effect of PFKL knockout on drug efficacy (cell viability) (TFK1 cells): significantly inhibited drug efficacy
O=C(CCCCCCC(=O)Nc1ccccc1)NO [vorinostat, reference compound]	87	10	6.1	11.5	104.1	3.6	–	–	–	–	–	effect of PFKL knockout on drug efficacy (cell viability) (TFK1 cells): significantly inhibited drug efficacy
CDRIKQSASGKRRVFIVETMRRRRRRRR [∆562-R8]	–	–	–	–	–	–	–	–	–	–	–	cellular permeability (HuCCT1 cells [1]): good cellular permeability; cytotoxicity (HuCCT1 cells [2]): low cytotoxicity
CDRIKQSASGTKRRVFIVETMRRRRRRRR [PFKL-552-572-R8]	–	–	–	–	–	–	–	–	–	–	–	cellular permeability (HuCCT1 cells [1]): good cellular permeability; cytotoxicity (HuCCT1 cells [2]): low cytotoxicity
Nc1ncn([C@H]2C[C@H](O)[C@@H](CO)O2)c(=O)n1 [Decitabine]	0.1	–	100	–	–	–	0	0.5	88.5	19.6	–	–
Cl.Cn1cc(C(=O)Nc2ccc([C@@H]3C[C@H]3NCC3CC3)cc2)cn1 [T-3775440 HCl]	0.3	0	97.3	0	15	90.4	–	–	–	–	-2.5	SLOPE (783C-6; [13]): -0.1
c1ccc([C@@H]2C[C@H]2NC2CCNCC2)cc1 [GSK-LSD1 2HCl]	–	–	–	–	–	–	0	–	–	–	–	D1 (1405R3): 104.9; D2 (1405R3): 104.6; D3 (1405R3): 91.3; D4 (1405R3): 100.7; D5 (1405R3): 129.6; MAX (1405R3): 100; MIN (1405R3): 91.3; SLOPE (1405R3): -0.4; AUC (1405R3; 72 h): 5.8; D1 (783C-6): 98.8; D2 (783C-6): 106.9; D3 (783C-6): 94.2; D4 (783C-6): 93.9; D5 (783C-6): 108.3; MAX (783C-6): 100; MIN (783C-6): 93.9; SLOPE (783C-6): -0.3; AUC (783C-6; 72 h): 6; DSS (783C-6; 72 h): 0
O=C(O)[C@]1(Cc2cccc(Nc3nccs3)n2)CC[C@@H](Oc2cccc(Cl)c2F)CC1 [MK-5108]	0.5	–	98.2	–	–	–	0	4.3	74.1	61.3	–	EC50 (783C-6; Homo sapiens, 72 h): 22.8 nM
Cc1nn2c([nH]c(=O)c3cccnc32)c1C#N [KDM4D-IN-1]	9.3	–	94	–	–	–	0	0	93.6	0.8	-0.1	SLOPE (783C-6; [14]): -2.5
O=C(/C=C/c1cccc(S(=O)(=O)Nc2ccccc2)c1)NO [belinostat, reference compound]	121.5	–	0	–	–	–	12.9	19	0.2	173.8	–	effect of PFKL knockout on drug efficacy (cell viability) (TFK1 cells): significantly inhibited drug efficacy; EC50 (1405R3; Homo sapiens, 1405R3 DSRT analysis, CellTiter-Glo, 72 h): 684 nM; EC50 (783C-6; Homo sapiens, 72 h): 195 nM
O=C(NCC1(c2nc(-c3ccccc3)cs2)CCOCC1)c1cccc(-c2noc(C(F)(F)F)n2)c1 [TMP269]	24.8	0	87	2.5	50.1	84.2	–	–	–	–	-0.2	SLOPE (783C-6; [13]): -0.3
c1cncc(-c2cn[nH]n2)c1 [3-TYP]	4.8	–	96.9	–	–	–	0	0	94.7	2.5	-0.1	SLOPE (783C-6; [14]): -0.6
(-)-Parthenolide	33.7	–	34.2	–	–	–	3.6	2.7	68.4	26.5	-2.5	EC50 (1405R3; 1405R3 DSRT analysis, CellTiter-Glo, 72 h): 3140 nM; EC50 (783C-6; 783C-6 DSRT analysis, CellTiter-Glo viability, 72 h, fitted dose-response curve, Min.Conc.tested 1, Max.Conc.tested 10000): 1460 nM; SLOPE (783C-6; [14]): -2.5
O=C(CCCCCCC(=O)Nc1ccc([C@H]2O[C@@H](CSc3nc(-c4ccccc4)c(-c4ccccc4)o3)C[C@@H](c3ccc(CO)cc3)O2)cc1)NO [Tubacin]	41.9	0	73.1	0	7.2	76.2	–	–	–	–	–	–
Cc1cc(Nc2ccc(NC(=O)c3ccc(Nc4ccnc5ccccc45)cc3)cc2)nc(N)n1 [SGI-1027]	19.4	0	87.3	0	2.3	92.3	–	–	–	–	-0.4	SLOPE (783C-6; [13]): -1
Nc1ccccc1NC(=O)c1ccc(CNc2nccc(-c3cccnc3)n2)cc1 [Mocetinostat]	100.5	11.8	1.1	11.6	98.8	4.8	–	–	–	–	–	EC50 (1405R3; [15]): 965 nM; EC50 (783C-6; Homo sapiens, 72 h): 917 nM
COc1cc2c(NC3CCN(C(C)C)CC3)nc(C3CCCCC3)nc2cc1OCCCN1CCCC1 [UNC0638]	19.7	1.9	59.1	2	21.3	73.8	–	–	–	–	–	EC50 (1405R3; [15]): 3370 nM; EC50 (783C-6; Homo sapiens, 72 h): 1540 nM
